Experimental findings from patent US11098041B2 (Merck Patent GmbH, priority 2014, dated 2021) are described below.

One experiment addresses full-length human BTK (Homo sapiens (Human), UniProt Q06187). Put plainly: Assay A: microfluidic off-chip mobility shift assay against BTK enzyme. It is filed as biochemical. The method, then:
Assay A: Microfluidic Off-Chip Mobility Shift Assay Protocol for Potency Assessment Against BTK Enzyme
The protocol below describes microfluidic, off-chip mobility shift kinase assay to measure inherent potency of compounds against BTK enzyme.
5 uL of enzyme buffer and 7.5 uL of ATP/kinKDR peptide substrate mix were added to Matrix (#115304) 384-well, sterile, polypropylene plates (Thermo Fisher Scientific, Hudson, N.H.) with 125 nL of serially diluted compounds prepared in 100% DMSO, and incubated for 90 min. at 27° C. Following the incubation period, reactions were stopped by adding 60 uL stop buffer consisting of 100 mM HEPES, pH 7.5, 0.015% Brij-35 (30%), 0.277% Coating Reagent #3 (Caliper Life Sciences, Mountain View, Calif.), 5% DMSO. Stopped reactions were monitored at −2 PSI, −3000 V/−700 V in a LabChip 3000 plate reader from Caliper Life Sciences, a PerkinElmer Company (Hopkinton, Mass.), and the activity was measured by off-chip mobility shift assay measuring the charge/mass difference between substrate and product resulting from peptide phosphorilation. IC50 and efficacy were determined by plotting log [Inhibitor] vs. % Activity in GeneData Screener (Basel. Switzerland).

Experiment [1] has as its target BTK C481S (His-TEV-hsBTK(328-659)(C481S)) (Homo sapiens (Human), UniProt Q06187, C481S). Put plainly: Assay B: microfluidic off-chip mobility shift assay against BTK C481S enzyme. The experiment is classed as biochemical. To be noted: BTK C481S mutant. The method, then: The mechanics of the assay platform are described by the vendor (PerkinElmer, Hopkinton, Mass.) on their website at the following URL: http://caliperls.com.
5 uL of enzyme buffer and 7.5 uL of ATP/KinKDR peptide substrate mix were added to Matrix (#4315) 384-well, sterile, flat-bottom polypropylene plates (Thermo Fisher Scientific, Hudson, N.H.) with 125 nL of serially diluted compounds prepared in 100% DMSO, and incubated for 90 min. at 25° C. Following the incubation period, reactions were terminated by adding 65 uL quench buffer consisting of 100 mM HEPES, pH 7.5, 0.015% Brij-35 (30%), 0.277% Coating Reagent #3 (PerkinElmer, Mountain View, Calif.), 5% DMSO. Terminated reactions were monitored at −2 PSI, −3000 V/−700 Volts in a LabChip 3000 plate reader from Caliper Life Sciences, a PerkinElmer Company (Hopkinton, Mass.), and the activity was quantified by laser-induced fluorescence measuring the charge/mass difference between substrate and product resulting from peptide phosphorylation. IC50 and efficacy were determined by plotting log [Inhibitor] vs. % Activity in GeneData Screener (Basel, Switzerland).

Molecules are shown by their SMILES.

One may read the IC50 as the concentration that gives 50% inhibition.

Chain of full-length human BTK (Q06187 whole entry): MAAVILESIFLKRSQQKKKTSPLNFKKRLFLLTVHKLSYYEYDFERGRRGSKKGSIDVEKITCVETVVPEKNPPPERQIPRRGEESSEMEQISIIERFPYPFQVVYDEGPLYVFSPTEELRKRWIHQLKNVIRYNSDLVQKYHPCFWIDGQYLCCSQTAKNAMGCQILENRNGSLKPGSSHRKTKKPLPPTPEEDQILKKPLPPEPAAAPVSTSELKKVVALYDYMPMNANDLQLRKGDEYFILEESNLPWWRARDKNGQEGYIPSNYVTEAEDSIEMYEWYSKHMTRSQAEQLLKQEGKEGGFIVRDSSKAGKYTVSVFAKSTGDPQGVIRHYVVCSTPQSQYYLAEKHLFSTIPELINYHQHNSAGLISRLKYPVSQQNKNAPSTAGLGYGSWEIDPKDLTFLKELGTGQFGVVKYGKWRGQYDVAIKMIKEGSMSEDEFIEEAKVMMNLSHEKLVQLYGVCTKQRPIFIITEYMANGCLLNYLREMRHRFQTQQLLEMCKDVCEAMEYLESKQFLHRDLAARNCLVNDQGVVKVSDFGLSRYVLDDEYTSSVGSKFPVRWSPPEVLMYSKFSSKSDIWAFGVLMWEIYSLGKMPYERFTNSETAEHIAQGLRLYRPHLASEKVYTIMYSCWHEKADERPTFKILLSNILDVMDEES
Chain of BTK C481S (His-TEV-hsBTK(328-659)(C481S)) (Q06187 328-659 C481S): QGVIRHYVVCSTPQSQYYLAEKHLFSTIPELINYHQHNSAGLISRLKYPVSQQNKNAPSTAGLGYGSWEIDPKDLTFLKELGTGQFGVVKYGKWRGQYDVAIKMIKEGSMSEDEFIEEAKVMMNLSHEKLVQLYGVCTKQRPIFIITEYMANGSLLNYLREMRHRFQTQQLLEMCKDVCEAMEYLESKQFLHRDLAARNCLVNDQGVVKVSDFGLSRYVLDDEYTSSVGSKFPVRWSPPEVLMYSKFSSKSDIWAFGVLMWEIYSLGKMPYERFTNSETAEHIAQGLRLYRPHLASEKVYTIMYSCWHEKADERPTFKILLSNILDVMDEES

As to `Cn1cc(-c2nc3c(-c4cnc(CNC(=O)c5nnc(C(C)(C)C)o5)c(F)c4)ccnc3[nH]2)cn1` [Example 13, 5-tert-Butyl-[1,3,4]oxadiazole-2-carboxylic acid {3-fluoro-5-[2-(1-methyl-1H-pyrazol-4-yl)-3H-imidazo[4,5-b]pyridin-7-yl]-pyridin-2-ylmethyl}-amide], the IC50 on full-length human BTK is 100 to 1000 nM; in experiment [1], less than 100 nM.

In the case of `Cn1cc(-c2nc3c(-c4ccc(CNC(=O)c5cnc(C6CC6)o5)c(F)c4)ccnc3[nH]2)cn1` [Example 18], the half-maximal inhibitory concentration (IC50) (at full-length human BTK; in experiment [1]) was less than 100 nM each time.

In the case of `CCn1cc(C(=O)NCc2ccc(-c3ccnc4[nH]c(-c5cnn(C)c5)nc34)cc2F)cn1` [Example 20, 1-Ethyl-1H-pyrazole-4-carboxylic acid 2-fluoro-4-[2-(1-methyl-1H-pyrazol-4-yl)-3H-imidazo[4,5-b]pyridin-7-yl]-benzylamide], the IC50 (at full-length human BTK; in experiment [1]) was less than 100 nM each time.

Take `Cn1cc(-c2nc3c(-c4ccc(CNC(=O)CCC(C)(C)C)c(F)c4)ccnc3[nH]2)cn1` [Example 21, 4,4-Dimethyl-pentanoic acid 2-fluoro-4-[2-(1-methyl-1H-pyrazol-4-yl)-3H-imidazo[4,5-b]pyridin-7-yl]-benzylamide]: the 50% inhibitory concentration (IC50) (on full-length human BTK; in experiment [1]) was less than 100 nM each time.

For the compound `Cn1cc(-c2nc3c(-c4ccc(CNC(=O)c5csc(C(F)(F)F)n5)c(F)c4)ccnc3[nH]2)cn1` [Example 22, 2-Trifluoromethyl-thiazole-4-carboxylic acid 2-fluoro-4-[2-(1-methyl-1H-pyrazol-4-yl)-3H-imidazo[4,5-b]pyridin-7-yl]-benzylamide], the IC50 (at full-length human BTK; in experiment [1]) was 100 to 1000 nM throughout.

On to `CC(C)(C)c1ccc(C(=O)NCc2ccc(-c3ccnc4[nH]c(C5CC5)nc34)cc2F)cc1` [Example 26, 4-tert-Butyl-N-[4-(2-cyclopropyl-3H-imidazo[4,5-b]pyridin-7-yl)-2-fluoro-benzyl]-benzamide], for which the concentration for half-maximal inhibition (IC50) (at full-length human BTK; in experiment [1]) was less than 100 nM throughout.

As for `CC(C)(C)c1cc(C(=O)NCc2ccc(-c3ccnc4[nH]c(C5CCNC(=O)C5)nc34)cc2F)no1` (centres unmarked) [Example 29, 5-tert-Butyl-isoxazole-3-carboxylic acid 2-fluoro-4-[2-(2-oxo-piperidin-4-yl)-3H-imidazo[4,5-b]pyridin-7-yl]-benzylamide], the IC50 lay in the range of 1000 to 5000 nM on full-length human BTK and 100 to 1000 nM in experiment [1].

In the case of `CC(C)(C)c1nc(C(=O)NCc2ccc(-c3ccnc4[nH]c(C5CCNC(=O)C5)nc34)cc2F)no1` (centres unmarked) [Example 30, 5-tert-Butyl-[1,2,4]oxadiazole-3-carboxylic acid 2-fluoro-4-[2-(2-oxo-piperidin-4-yl)-3H-imidazo[4,5-b]pyridin-7-yl]-benzylamide], the IC50 on full-length human BTK was in the range of 1000 to 5000 nM; in experiment [1] it was 100 to 1000 nM.

As to `CC(C)(C)c1noc(C(=O)NCc2ccc(-c3ccnc4[nH]c(C5CCNC(=O)C5)nc34)cc2F)n1` (centres unmarked) [Example 31, 3-tert-Butyl-[1,2,4]oxadiazole-5-carboxylic acid 2-fluoro-4-[2-(2-oxo-piperidin-4-yl)-3H-imidazo[4,5-b]pyridin-7-yl]-benzylamide], the IC50 at full-length human BTK was in the range of 1000 to 5000 nM; in experiment [1], 100 to 1000 nM.

In the case of `Cn1cc(-c2nc3c(-c4ccc(CO)c(F)c4)ccnc3[nH]2)cn1` [Example 32, {2-Fluoro-4-[2-(1-methyl-1H-pyrazol-4-yl)-3H-imidazo[4,5-b]pyridin-7-yl]-phenyl}-methanol], the IC50 is 1000 to 5000 nM on full-length human BTK and 100 to 1000 nM in experiment [1].

Take `Cn1cc(-c2nc3c(-c4ccc(CN5CCOc6cc(C7CC7)cc(F)c6C5=O)cc4CO)ccnc3[nH]2)cn1` [Example 38, 8-Cyclopropyl-6-fluoro-4-[[3-(hydroxymethyl)0-4-[2-(1-methyl-1H-pyrazol-4-yl)-3H-imidazo[4,5-b]pyridin-7-yl]phenyl]methyl]-2,3,4,5-tetrahydro-1,4-benzoxazepin-5-one]: the half-maximal inhibitory concentration (IC50) (at full-length human BTK; in experiment [1]) was 100 to 1000 nM each time.

For the compound `Cn1cc(-c2nc3c(-c4cccc(NC(=O)c5noc(C(C)(C)C)n5)c4CO)ccnc3[nH]2)cn1` [Example 43, 5-tert-Butyl-N-[2-(hydroxymethyl)-3-[2-(1-methyl-1H-pyrazol-4-yl)-3H-imidazo[4,5-b]pyridin-7-yl]phenyl]-1,2,4-oxadiazole-3-carboxamide], the IC50 (at full-length human BTK; in experiment [1]) was 100 to 1000 nM throughout.

Take `Cn1cc(-c2nc3c(-c4cccc(NC(=O)c5noc(C6CC6)n5)c4CO)ccnc3[nH]2)cn1` [Example 44, 5-Cyclopropyl-N-[2-(hydroxymethyl)-3-[2-(1-methyl-1H-pyrazol-4-yl)-3H-imidazo[4,5-b]pyridin-7-yl]phenyl]-1,2,4-oxadiazole-3-carboxamide]: the figures for the half-maximal inhibitory concentration (IC50) (at full-length human BTK; in experiment [1]) were 1000 to 5000 nM and less than 100 nM, respectively.

For `CC(C)(C)c1nc(C(=O)Nc2cccc(-c3ccnc4[nH]c(-c5ccc(C(=O)N6CCOCC6)cc5)nc34)c2CO)no1` [Example 45, 5-tert-Butyl-N-[2-(hydroxymethyl)-3-(2-[4-[(morpholin-4-yl)carbonyl]phenyl]-3H-imidazo[4,5-b]pyridin-7-yl)phenyl]-1,2,4-oxadiazole-3-carboxamide], the half-inhibitory concentration (IC50) (on full-length human BTK; in experiment [1]) was less than 100 nM in each case.

As for `CC(C)(C)c1ccc(C(=O)Nc2cccc(-c3ccnc4[nH]c(-c5ccc(C(=O)N6CCOCC6)cc5)nc34)c2CO)cc1` [Example 46, 4-tert-Butyl-N-[2-(hydroxymethyl)-3-(2-[4-[(morpholin-4-yl)carbonyl]phenyl]-3H-imidazo[4,5-b]pyridin-7-yl)phenyl]benzamide], the IC50 (at full-length human BTK; in experiment [1]) was 1000 to 5000 nM throughout.

Turning to `C[C@@H]1CN(c2ccc(-c3nc4c(-c5cccc(NC(=O)c6noc(C(C)(C)C)n6)c5CO)ccnc4[nH]3)cc2)C[C@H](C)O1` [Example 47, 5-tert-Butyl-N-[3-(2-[4-[(2R,6S)-2,6-dimethylmorpholin-4-yl]phenyl]-3H-imidazo[4,5-b]pyridin-7-yl)-2-(hydroxymethyl)phenyl]-1,2,4-oxadiazole-3-carboxamide], the half-inhibitory concentration (IC50) is 100 to 1000 nM on full-length human BTK and less than 100 nM in experiment [1].

`CC(C)(C)c1nc(C(=O)Nc2cccc(-c3ccnc4[nH]c(-c5ccc(N6CCC(F)(F)CC6)cc5)nc34)c2CO)no1` [Example 48, 5-tert-Butyl-N-(3-[2-[4-(4,4-difluoropiperidin-1-yl)phenyl]-3H-imidazo[4,5-b]pyridin-7-yl]-2-(hydroxymethyl)phenyl)-1,2,4-oxadiazole-3-carboxamide]: the concentration for half-maximal inhibition (IC50) at full-length human BTK is 100 to 1000 nM; in experiment [1], less than 100 nM.

For the compound `Cn1cc(-c2nc3c(-c4ccc(CNC(=O)C5CC(OC(C)(C)C)C5)c(F)c4)ccnc3[nH]2)cn1` (centres unmarked) [Example 60, 3-(tert-Butoxy)-N-([2-fluoro-4-[2-(1-methyl-1H-pyrazol-4-yl)-3H-imidazo[4,5-b]pyridin-7-yl]phenyl]methyl)cyclobutane-1-carboxamide], the IC50 (on full-length human BTK; in experiment [1]) was 100 to 1000 nM throughout.

As to `COc1cccc(-c2nc3c(-c4cc(F)c(CNC(=O)c5noc(C(C)(C)C)n5)cc4C)ccnc3[nH]2)c1` [Example 78, 5-tert-Butyl-N-([2-fluoro-4-[2-(3-methoxyphenyl)-3H-imidazo[4,5-b]pyridin-7-yl]-5-methylphenyl]methyl)-1,2,4-oxadiazole-3-carboxamide], the IC50 (on full-length human BTK; in experiment [1]) was less than 100 nM each time.

With `Cc1c(CNC(=O)c2noc(C(C)(C)C)n2)cccc1-c1ccnc2[nH]c(-c3cnn(C)c3)nc12` [Example 88, 5-tert-Butyl-N-([2-methyl-3-[2-(1-methyl-1H-pyrazol-4-yl)-3H-imidazo[4,5-b]pyridin-7-yl]phenyl]methyl)-1,2,4-oxadiazole-3-carboxamide], the values for the IC50 (on full-length human BTK; in experiment [1]) were 1000 to 5000 nM and more than 5000 nM, respectively.

On to `Cn1cc(-c2nc3c(-c4ccc(Cn5ncc6cc(C(C)(C)C)cc(F)c6c5=O)c(F)c4)ccnc3[nH]2)cn1` [Example 99, 6-tert-Butyl-8-fluoro-2-{2-fluoro-4-[2-(1-methyl-1H-pyrazol-4-yl)-3H-imidazo[4,5-b]pyridin-7-yl]-benzyl}-2H-phthalazin-1-one], for which the concentration for half-maximal inhibition (IC50) (on full-length human BTK; in experiment [1]) was less than 100 nM each time.

For the compound `Cc1cc(-c2ccnc3[nH]c(-c4cnn(C)c4)nc23)ccc1CNC(=O)C(N)=O` [Example 101, N-{2-Methyl-4-[2-(1-methyl-1H-pyrazol-4-yl)-3H-imidazo[4,5-b]pyridin-7-yl]-benzyl}-oxalamide], the IC50 (on full-length human BTK; in experiment [1]) was 1000 to 5000 nM throughout.
